Tests used:
[1] = biological target: MAP kinase-activated protein kinase 5 (Homo sapiens) (UniProt Q8IW41); experiment: Inhibition of PRAK at 1 uM relative to control
[2] = Volume of distribution at steady state in Sprague-Dawley rat at 1 mg/kg, iv; type: ADME, organism-based; set-up: dose 1 mg/kg, route intravenous; conditions: in vivo, read-out: Vdss
[3] = biological target: Mitogen-activated protein kinase 1 (Homo sapiens) (UniProt P28482); experiment: Inhibition of MAPK2 at 1 uM relative to control
[4] = biological target: Mitogen-activated protein kinase 14 (Homo sapiens) (UniProt Q16539); experiment: Inhibition of p38alpha at 1 uM relative to control
[5] = Cmax in Sprague-Dawley rat at 10 mg/kg, po; type: ADME, organism-based; set-up: dose 10 mg/kg, route oral; conditions: in vivo
[6] = Half life in Sprague-Dawley rat at 10 mg/kg, po; type: ADME, organism-based; set-up: dose 10 mg/kg, route oral; conditions: in vivo
[7] = biological target: RAC-alpha serine/threonine-protein kinase (Homo sapiens) (UniProt P31749); experiment: Inhibition of PKBalpha at 1 uM relative to control
[8] = Inhibition of PKAalpha at 1 uM relative to control
[9] = biological target: Cyclin-dependent kinase 1 (Homo sapiens) (UniProt P06493); experiment: Inhibition of CDK1 at 1 uM relative to control
[10] = biological target: Mitogen-activated protein kinase 1 (Homo sapiens) (UniProt P28482); experiment: Inhibition of MAPK1 at 1 uM relative to control
[11] = test system: Mus musculus; experiment: Effect on SCF-induced mast cell activation in po dosed C57BL/6 mouse assessed as decrease in histamine release in blood; type: functional, organism-based; conditions: C57BL/6, Blood
[12] = biological target: Serine/threonine-protein kinase Sgk1 (Homo sapiens) (UniProt O00141); experiment: Inhibition of SGK1 at 1 uM relative to control
[13] = biological target: MAP kinase-activated protein kinase 2 (Homo sapiens) (UniProt P49137); experiment: Inhibition of MAPKAPK2 at 1 uM relative to control
[14] = biological target: Tyrosine-protein kinase ZAP-70 (Homo sapiens) (UniProt P43403); experiment: Inhibition of ZAP70 at 1 uM relative to control
[15] = biological target: Proto-oncogene tyrosine-protein kinase Src (Homo sapiens, UniProt P12931)
Description: Inhibition of Src by TR-FRET assay

[16] = biological target: Mitogen-activated protein kinase 9 (Homo sapiens) (UniProt P45984); experiment: Inhibition of JNK2 at 1 uM relative to control
[17] = biological target: Calcium/calmodulin-dependent protein kinase type IV (Homo sapiens) (UniProt Q16566); experiment: Inhibition of CAMK4 at 1 uM relative to control
[18] = biological target: Platelet-derived growth factor receptor alpha (Homo sapiens, UniProt P16234)
Description: Inhibition of PDGFRalpha by TR-FRET assay

[19] = biological target: Cyclin-dependent kinase 2 (Homo sapiens) (UniProt P24941); experiment: Inhibition of CDK2 at 1 uM relative to control
[20] = biological target: Dual specificity mitogen-activated protein kinase kinase 1 (Homo sapiens) (UniProt Q02750); experiment: Inhibition of MEK1 at 1 uM relative to control
[21] = test system: Plasma; experiment: Protein binding in po dosed C57BL/6 mouse plasma by ultracentrifugation; type: ADME, organism-based; conditions: in vivo
[22] = Inhibition of p38 by TR-FRET assay
[23] = biological target: Mitogen-activated protein kinase 13 (Homo sapiens) (UniProt O15264); experiment: Inhibition of p38delta at 1 uM relative to control
[24] = AUC (0 to t) in Sprague-Dawley rat at 10 mg/kg, po; type: ADME, organism-based; set-up: dose 10 mg/kg, route oral; conditions: plasma
[25] = biological target: Dual specificity mitogen-activated protein kinase kinase 6 (Homo sapiens) (UniProt P52564); experiment: Inhibition of MKK6 at 1 uM relative to control
[26] = Oral bioavailability in Sprague-Dawley rat at 10 mg/kg; type: ADME, organism-based; conditions: in vivo
[27] = biological target: Rho-associated protein kinase 2 (Homo sapiens) (UniProt O75116); experiment: Inhibition of ROCK2 at 1 uM relative to control
[28] = biological target: Mitogen-activated protein kinase 10 (Homo sapiens) (UniProt P53779); experiment: Inhibition of JNK3 at 1 uM relative to control
[29] = biological target: Glycogen synthase kinase-3 beta (Homo sapiens) (UniProt P49841); experiment: Inhibition of GSK3-beta at 1 uM relative to control
[30] = biological target: Mitogen-activated protein kinase 12 (Homo sapiens) (UniProt P53778); experiment: Inhibition of p38-gamma at 1 uM relative to control
[31] = Inhibition of casein kinase 1 at 1 uM relative to control
[32] = Clearance in Sprague-Dawley rat at 1 mg/kg, iv; type: ADME, organism-based; set-up: dose 1 mg/kg, route intravenous; conditions: in vivo
[33] = biological target: Dual specificity mitogen-activated protein kinase kinase 7 (Homo sapiens) (UniProt O14733); experiment: Inhibition of MKK7 at 1 uM relative to control
[34] = biological target: Ribosomal protein S6 kinase beta-1 (Homo sapiens) (UniProt P23443); experiment: Inhibition of P70S6 at 1 uM relative to control
[35] = biological target: Protein kinase C alpha type (Homo sapiens) (UniProt P17252); experiment: Inhibition of PKCalpha at 1 uM relative to control
[36] = biological target: Mitogen-activated protein kinase 11 (Homo sapiens) (UniProt Q15759); experiment: Inhibition of p38beta at 1 uM relative to control
[37] = biological target: Tyrosine-protein kinase ABL1 (Homo sapiens, UniProt P00519); experiment: Inhibition of Abl by TR-FRET assay
[38] = biological target: Serine/threonine-protein kinase N2 (Homo sapiens) (UniProt Q16513); experiment: Inhibition of PRK2 at 1 uM relative to control
[39] = biological target: Protein kinase C gamma type (Homo sapiens) (UniProt P05129); experiment: Inhibition of PKCgamma at 1 uM relative to control
[40] = biological target: Vascular endothelial growth factor receptor 2 (Homo sapiens, UniProt P35968)
Description: Inhibition of KDR by TR-FRET assay

[41] = biological target: Tyrosine-protein kinase Lck (Homo sapiens, UniProt P06239)
Description: Inhibition of Lck by TR-FRET assay

[42] = Inhibition of casein kinase 2 at 1 uM relative to control
[43] = biological target: Serine/threonine-protein kinase Chk2 (Homo sapiens) (UniProt O96017); experiment: Inhibition of CHK2 at 1 uM relative to control
[44] = Inhibition of CAMK2 at 1 uM relative to control
[45] = biological target: Ribosomal protein S6 kinase alpha-5 (Homo sapiens) (UniProt O75582); experiment: Inhibition of MSK1 at 1 uM relative to control
[46] = biological target: Protein kinase C beta type (Homo sapiens) (UniProt P05771); experiment: Inhibition of PKCbeta at 1 uM relative to control
[47] = biological target: 5'-AMP-activated protein kinase subunit beta-1 (Homo sapiens) (UniProt Q9Y478); experiment: Inhibition of AMPK at 1 uM relative to control
[48] = biological target: Dual specificity mitogen-activated protein kinase kinase 4 (Homo sapiens) (UniProt P45985); experiment: Inhibition of MKK4 at 1 uM relative to control
[49] = biological target: Serine/threonine-protein kinase Chk1 (Homo sapiens) (UniProt O14757); experiment: Inhibition of CHK1 at 1 uM relative to control
[50] = biological target: Mitogen-activated protein kinase 8 (Homo sapiens) (UniProt P45983); experiment: Inhibition of JNK1 at 1 uM relative to control

Chain of Mitogen-activated protein kinase 1 (Homo sapiens) (P28482 whole entry): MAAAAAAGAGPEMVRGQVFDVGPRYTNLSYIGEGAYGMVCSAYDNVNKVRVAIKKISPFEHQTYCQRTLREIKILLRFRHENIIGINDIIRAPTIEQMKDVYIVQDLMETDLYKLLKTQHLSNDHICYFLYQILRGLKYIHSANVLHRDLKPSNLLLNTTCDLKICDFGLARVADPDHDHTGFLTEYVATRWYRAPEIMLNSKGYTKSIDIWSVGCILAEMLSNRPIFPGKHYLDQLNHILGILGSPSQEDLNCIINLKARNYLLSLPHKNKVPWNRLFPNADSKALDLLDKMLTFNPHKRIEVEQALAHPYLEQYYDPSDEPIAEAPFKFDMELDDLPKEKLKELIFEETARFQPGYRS
Chain of Tyrosine-protein kinase ZAP-70 (Homo sapiens) (P43403 whole entry): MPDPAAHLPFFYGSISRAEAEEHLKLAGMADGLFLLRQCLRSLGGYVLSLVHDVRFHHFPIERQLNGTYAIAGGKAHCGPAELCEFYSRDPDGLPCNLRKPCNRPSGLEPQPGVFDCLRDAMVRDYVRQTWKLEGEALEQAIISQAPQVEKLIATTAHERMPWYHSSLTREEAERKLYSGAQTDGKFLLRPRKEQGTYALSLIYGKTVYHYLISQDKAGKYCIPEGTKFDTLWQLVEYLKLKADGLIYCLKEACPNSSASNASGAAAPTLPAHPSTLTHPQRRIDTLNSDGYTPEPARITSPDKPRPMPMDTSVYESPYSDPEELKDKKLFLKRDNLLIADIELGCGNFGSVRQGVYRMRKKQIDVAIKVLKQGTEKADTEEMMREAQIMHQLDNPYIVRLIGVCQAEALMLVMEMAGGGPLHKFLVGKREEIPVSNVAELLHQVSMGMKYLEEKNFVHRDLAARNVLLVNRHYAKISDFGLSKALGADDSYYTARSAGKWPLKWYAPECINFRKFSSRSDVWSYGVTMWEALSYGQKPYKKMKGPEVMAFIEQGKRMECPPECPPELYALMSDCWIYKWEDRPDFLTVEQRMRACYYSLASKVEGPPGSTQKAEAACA
Chain of Tyrosine-protein kinase Lck (P06239 whole entry): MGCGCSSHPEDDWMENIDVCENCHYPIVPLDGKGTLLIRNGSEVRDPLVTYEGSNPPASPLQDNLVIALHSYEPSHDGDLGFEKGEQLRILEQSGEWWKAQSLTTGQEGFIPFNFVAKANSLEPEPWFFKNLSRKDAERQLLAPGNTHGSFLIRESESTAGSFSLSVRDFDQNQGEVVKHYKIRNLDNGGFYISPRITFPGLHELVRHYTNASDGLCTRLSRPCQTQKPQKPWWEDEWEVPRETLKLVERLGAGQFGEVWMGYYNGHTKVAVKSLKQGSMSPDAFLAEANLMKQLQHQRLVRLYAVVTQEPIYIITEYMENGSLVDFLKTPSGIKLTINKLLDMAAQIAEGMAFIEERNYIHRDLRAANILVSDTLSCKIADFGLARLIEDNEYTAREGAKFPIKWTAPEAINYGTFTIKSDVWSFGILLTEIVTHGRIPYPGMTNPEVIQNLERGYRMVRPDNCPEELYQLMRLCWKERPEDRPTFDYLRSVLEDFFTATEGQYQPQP
Chain of Serine/threonine-protein kinase Sgk1 (Homo sapiens) (O00141 whole entry): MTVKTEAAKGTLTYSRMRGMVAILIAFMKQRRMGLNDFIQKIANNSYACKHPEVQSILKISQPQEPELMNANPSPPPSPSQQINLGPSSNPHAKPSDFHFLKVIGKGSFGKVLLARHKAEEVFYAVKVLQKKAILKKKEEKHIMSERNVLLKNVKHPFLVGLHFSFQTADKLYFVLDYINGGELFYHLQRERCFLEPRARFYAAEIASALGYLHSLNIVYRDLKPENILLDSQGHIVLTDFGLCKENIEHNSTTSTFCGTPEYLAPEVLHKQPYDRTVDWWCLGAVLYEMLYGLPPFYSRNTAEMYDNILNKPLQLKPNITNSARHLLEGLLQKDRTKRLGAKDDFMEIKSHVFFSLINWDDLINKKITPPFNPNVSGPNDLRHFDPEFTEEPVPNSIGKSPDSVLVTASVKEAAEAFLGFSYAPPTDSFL
Chain of 5'-AMP-activated protein kinase subunit beta-1 (Homo sapiens) (Q9Y478 whole entry): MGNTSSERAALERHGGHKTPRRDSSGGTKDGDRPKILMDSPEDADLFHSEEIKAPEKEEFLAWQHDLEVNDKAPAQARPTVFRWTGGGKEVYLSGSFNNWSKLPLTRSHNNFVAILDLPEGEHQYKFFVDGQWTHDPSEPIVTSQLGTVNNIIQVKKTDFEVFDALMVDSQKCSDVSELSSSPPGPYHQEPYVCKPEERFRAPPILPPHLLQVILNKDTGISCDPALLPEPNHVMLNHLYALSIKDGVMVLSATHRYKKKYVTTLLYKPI
Chain of Platelet-derived growth factor receptor alpha (P16234 whole entry): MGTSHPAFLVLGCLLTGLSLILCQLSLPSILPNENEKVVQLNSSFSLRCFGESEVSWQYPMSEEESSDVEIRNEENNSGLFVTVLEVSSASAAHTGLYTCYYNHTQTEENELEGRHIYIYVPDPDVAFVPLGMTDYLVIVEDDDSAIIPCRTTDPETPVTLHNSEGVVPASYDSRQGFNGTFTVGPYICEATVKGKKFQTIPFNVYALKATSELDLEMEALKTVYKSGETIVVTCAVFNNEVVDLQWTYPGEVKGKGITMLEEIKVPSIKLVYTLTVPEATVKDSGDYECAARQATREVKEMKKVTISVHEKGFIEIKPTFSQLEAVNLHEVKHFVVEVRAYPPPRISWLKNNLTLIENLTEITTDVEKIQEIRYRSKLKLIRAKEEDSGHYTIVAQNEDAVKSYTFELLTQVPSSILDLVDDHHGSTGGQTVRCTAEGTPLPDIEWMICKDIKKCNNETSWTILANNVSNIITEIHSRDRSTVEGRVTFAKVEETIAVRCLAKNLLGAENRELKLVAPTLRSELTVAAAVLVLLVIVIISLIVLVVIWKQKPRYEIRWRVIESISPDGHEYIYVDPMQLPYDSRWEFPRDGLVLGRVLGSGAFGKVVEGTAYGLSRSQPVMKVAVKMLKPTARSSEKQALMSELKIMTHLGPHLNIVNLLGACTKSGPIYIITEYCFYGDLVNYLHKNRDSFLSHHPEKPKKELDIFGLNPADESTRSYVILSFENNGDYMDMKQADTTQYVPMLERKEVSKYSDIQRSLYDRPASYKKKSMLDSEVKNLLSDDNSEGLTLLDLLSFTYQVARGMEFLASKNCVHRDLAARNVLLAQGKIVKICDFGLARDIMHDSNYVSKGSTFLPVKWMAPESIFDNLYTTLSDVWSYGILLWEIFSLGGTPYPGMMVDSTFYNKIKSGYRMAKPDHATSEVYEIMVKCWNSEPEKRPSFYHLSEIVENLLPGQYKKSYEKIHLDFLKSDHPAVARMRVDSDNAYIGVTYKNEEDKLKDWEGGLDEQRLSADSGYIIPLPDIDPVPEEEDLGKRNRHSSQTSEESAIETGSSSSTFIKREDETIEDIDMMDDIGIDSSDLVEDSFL
Chain of Ribosomal protein S6 kinase beta-1 (Homo sapiens) (P23443 whole entry, looked up): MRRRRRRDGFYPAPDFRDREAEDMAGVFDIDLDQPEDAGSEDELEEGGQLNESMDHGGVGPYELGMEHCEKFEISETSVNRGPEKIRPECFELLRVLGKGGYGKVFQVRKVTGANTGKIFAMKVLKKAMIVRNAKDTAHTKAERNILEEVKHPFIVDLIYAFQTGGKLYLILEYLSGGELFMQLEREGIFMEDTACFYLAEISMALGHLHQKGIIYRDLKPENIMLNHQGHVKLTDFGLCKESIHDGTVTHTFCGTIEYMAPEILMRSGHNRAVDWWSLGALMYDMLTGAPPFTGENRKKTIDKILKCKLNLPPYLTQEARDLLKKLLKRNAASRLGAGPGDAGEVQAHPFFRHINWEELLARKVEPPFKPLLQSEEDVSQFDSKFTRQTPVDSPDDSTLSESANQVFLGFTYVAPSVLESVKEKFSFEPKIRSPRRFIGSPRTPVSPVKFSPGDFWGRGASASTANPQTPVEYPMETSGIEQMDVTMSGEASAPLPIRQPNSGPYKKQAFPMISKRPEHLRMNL
Chain of Mitogen-activated protein kinase 12 (Homo sapiens) (P53778 whole entry): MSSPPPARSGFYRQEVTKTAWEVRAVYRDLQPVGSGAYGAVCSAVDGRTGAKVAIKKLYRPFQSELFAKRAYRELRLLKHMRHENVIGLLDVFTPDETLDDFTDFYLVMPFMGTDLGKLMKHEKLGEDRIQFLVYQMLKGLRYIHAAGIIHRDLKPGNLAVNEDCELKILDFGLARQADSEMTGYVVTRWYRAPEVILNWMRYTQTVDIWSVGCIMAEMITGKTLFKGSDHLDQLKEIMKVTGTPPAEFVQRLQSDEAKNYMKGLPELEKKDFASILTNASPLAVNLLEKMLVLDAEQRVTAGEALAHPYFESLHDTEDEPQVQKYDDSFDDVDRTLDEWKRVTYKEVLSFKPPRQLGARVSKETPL
Chain of Glycogen synthase kinase-3 beta (Homo sapiens) (P49841 whole entry, looked up): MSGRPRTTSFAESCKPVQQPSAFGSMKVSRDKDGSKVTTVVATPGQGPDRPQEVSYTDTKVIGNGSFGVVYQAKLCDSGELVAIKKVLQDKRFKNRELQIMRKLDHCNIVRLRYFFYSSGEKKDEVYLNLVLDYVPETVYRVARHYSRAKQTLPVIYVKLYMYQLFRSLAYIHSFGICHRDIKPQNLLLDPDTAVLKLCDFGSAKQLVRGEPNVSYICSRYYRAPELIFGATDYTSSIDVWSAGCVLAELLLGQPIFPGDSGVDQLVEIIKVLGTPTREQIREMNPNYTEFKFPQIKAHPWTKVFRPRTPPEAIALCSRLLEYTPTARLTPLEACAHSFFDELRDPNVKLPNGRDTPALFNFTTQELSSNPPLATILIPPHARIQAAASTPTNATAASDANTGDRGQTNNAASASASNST
Chain of Mitogen-activated protein kinase 13 (Homo sapiens) (O15264 whole entry): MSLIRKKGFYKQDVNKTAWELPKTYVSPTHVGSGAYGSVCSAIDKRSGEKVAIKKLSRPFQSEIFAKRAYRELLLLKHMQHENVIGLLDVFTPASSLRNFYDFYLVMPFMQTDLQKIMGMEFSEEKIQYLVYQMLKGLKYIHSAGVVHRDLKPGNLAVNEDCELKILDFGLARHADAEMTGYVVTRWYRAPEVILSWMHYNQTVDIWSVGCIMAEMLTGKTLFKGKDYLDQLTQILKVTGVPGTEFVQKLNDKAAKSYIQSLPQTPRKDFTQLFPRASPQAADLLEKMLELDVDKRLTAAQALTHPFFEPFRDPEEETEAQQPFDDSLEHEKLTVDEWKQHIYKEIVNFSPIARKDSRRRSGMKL

Q: Which inhibition [1] does the source give for `Cc1ccn(-c2cccc(C(F)(F)F)c2)c(=O)c1-c1ccc2nc(N)ncc2c1` here?
A: The inhibition was over 50%.

Q: What about the Vd [2] of the same molecule?
A: Its Vd is 4.12 L/kg.

Q: What about the inhibition [3] of the same molecule?
A: The inhibition was over 50%.

Q: What about the inhibition [4] of the same molecule?
A: The inhibition was over 50%.

Q: What about the Cmax [5] of the same molecule?
A: Its Cmax is 253 ng/mL.

Q: What about the half-life [6] of the same molecule?
A: Its half-life is 1.83 h.

Q: What about the inhibition [7] of the same molecule?
A: The inhibition was over 50%.

Q: And the inhibition [8]?
A: The inhibition was over 50%.

Q: What about the inhibition [9] of the same molecule?
A: Its inhibition is over 50%.

Q: What about the inhibition [10] of the same molecule?
A: The inhibition was over 50%.

Q: What about the EC50 [11] of the same molecule?
A: Its EC50 is 12.6 nM.

Q: And the ED50 ([11]; po)?
A: Its ED50 is 4.7 mg/kg.

Q: What about the inhibition [12] of the same molecule?
A: The inhibition was over 50%.

Q: And the inhibition [13]?
A: The inhibition was over 50%.

Q: What about the inhibition [14] of the same molecule?
A: The inhibition was over 50%.

Q: What about the IC50 [15] of the same molecule?
A: The IC50 was 860 nM.

Q: What about the inhibition [16] of the same molecule?
A: The inhibition was over 50%.

Q: And the inhibition [17]?
A: Its inhibition is over 50%.

Q: What about the IC50 [18] of the same molecule?
A: The IC50 was 9 nM.

Q: And the inhibition [19]?
A: Its inhibition is 50%.

Q: What about the inhibition [20] of the same molecule?
A: Its inhibition is over 50%.

Q: What about the Activity [21] of the same molecule?
A: Its Activity is 87.85%.

Q: And the IC50 [22]?
A: Its IC50 is 6100 nM.

Q: What about the inhibition [23] of the same molecule?
A: The inhibition was over 50%.

Q: What about the AUC(0-t) [24] of the same molecule?
A: Its AUC(0-t) is 1040 ng·h/mL.

Q: What about the inhibition [25] of the same molecule?
A: The inhibition was over 50%.

Q: What about the bioavailability [26] of the same molecule?
A: The bioavailability was 25%.

Q: And the inhibition [27]?
A: The inhibition was over 50%.

Q: And the inhibition [28]?
A: Its inhibition is over 50%.

Q: And the inhibition [29]?
A: Its inhibition is over 50%.

Q: What about the inhibition [30] of the same molecule?
A: Its inhibition is over 50%.

Q: What about the inhibition [31] of the same molecule?
A: Its inhibition is over 50%.

Q: And the clearance [32]?
A: Its clearance is 41 mL/min/kg.

Q: And the inhibition [33]?
A: The inhibition was over 50%.

Q: What about the inhibition [34] of the same molecule?
A: Its inhibition is over 50%.

Q: What about the inhibition [35] of the same molecule?
A: Its inhibition is over 50%.

Q: And the inhibition [36]?
A: Its inhibition is over 50%.

Q: And the IC50 [37]?
A: Its IC50 is 1400 nM.

Q: And the inhibition [38]?
A: Its inhibition is over 50%.

Q: And the inhibition [39]?
A: Its inhibition is over 50%.

Q: And the IC50 [40]?
A: Its IC50 is over 5000 nM.

Q: And the IC50 [41]?
A: The IC50 was 1700 nM.

Q: And the inhibition [42]?
A: Its inhibition is over 50%.

Q: What about the inhibition [43] of the same molecule?
A: Its inhibition is over 50%.

Q: And the inhibition [44]?
A: The inhibition was 50%.

Q: And the inhibition [45]?
A: Its inhibition is over 50%.

Q: What about the inhibition [46] of the same molecule?
A: The inhibition was over 50%.

Q: And the inhibition [47]?
A: Its inhibition is over 50%.

Q: And the inhibition [48]?
A: Its inhibition is over 50%.

Q: What about the inhibition [49] of the same molecule?
A: The inhibition was over 50%.

Q: And the inhibition [50]?
A: The inhibition was over 50%.
